We go through 20 compounds from article PMC8145535, “New Acyl Derivatives of 3-Aminofurazanes and Their Antiplasmodial Activities” (Pharmaceuticals, 2021).

SMILES strings stand for the structures. Like-named read-outs stand apart in the source and are kept apart here.

One data set deals with P. falciparum NF54. The experiment in a line: In vitro 3H-hypoxanthine incorporation assay, erythrocytic stages, NF54 strain. Format: cell-based, Plasmodium falciparum. The following applies: average of four determinations, read-out: P.f. NF54 IC50. The method, then:
(§1) Chloroquine (Sigma C6628) was used as standard. […] Serial drug dilutions of 11 3-fold dilution steps covering a range from 100 to 0.002 μg/mL were prepared. The 96-well plates were incubated in a humidified atmosphere at 37 °C; 4% CO2, 3% O2, 93% N2. […] The plates were incubated for a further 24 h under the same conditions. The plates were then harvested with a Betaplate cell harvester (Wallac, Zurich, Switzerland). The red blood cells were transferred onto a glass fiber filter and washed with distilled water. The dried filters were inserted into a plastic foil with 10 mL of scintillation fluid and counted in a Betaplate liquid scintillation counter (Wallac, Zurich, Switzerland).

A further data set is described as follows: in vitro. The following applies: rat. The method, then: Serial drug dilutions of 11 3-fold dilution steps covering a range from 100 to 0.002 μg/mL were prepared. After 70 h of incubation, the plates were inspected under an inverted microscope to assure the growth of the controls and sterile conditions. […] Then, the plates were read with a Spectramax Gemini XS microplate fluorometer (Molecular Devices Cooperation, Sunnyvale, CA, USA) using an excitation wavelength of 536 nm and an emission wavelength of 588 nm. […] Podophyllotoxin (Sigma P4405) was used as control.

For a further data set, the system named is P. falciparum K1. The experiment in a line: In vitro 3H-hypoxanthine incorporation assay, erythrocytic stages, K1 strain. Format: cell-based. The following applies: Plasmodium falciparum. The method, then:
as §1

Data set [1] is described as follows: Parallel artificial membrane permeability assay (PAMPA). Format: in vitro ADME. The following applies: pH 7.4, 200 µM in PBS, room temperature; for Papp at 5 h, 200 µM: pH 7.4, PAMPA, read-out: Pe (effective permeability). The procedure:
The PAMPA was performed using a 96-well precoated Corning Gentest PAMPA plate at a pH of 7.4. The PAMPA plate system consists of a donor plate and an acceptor plate. When both plates are coupled, each well is divided into two chambers that are separated by a lipid–oil–lipid trilayer constructed in a porous filter. Stock solutions (10 mM) of each compound were prepared in DMSO and then further diluted to a concentration of 200 µM in phosphate-buffered saline (PBS) at pH 7.4. The compound dissolved in PBS was then added to the donor plate and pure PBS was added to the acceptor plate. Four replicates of each compound and negative control (PBS) were transferred into different wells of the donor plate. Both plates were coupled and left at room temperature for 5 h. Then, the plates were separated, and the solutions of each donor well and acceptor well were transferred to 96-well UV-Star Microplates (Greiner Bio-One). The UV absorbance of compounds in donor wells and acceptor wells were analyzed by a SpectraMax M3 UV plate reader (Molecular Devices). The concentrations were received from a calibration curve for each substance. The plates were analyzed at a wavelength where the R^2 value of the calibration curve was higher than 0.99 [34]. The effective permeability (Pe) was calculated as shown in the following Equations (1)–(3):(1) Penm/s=10^7∗−ln1−cAt/cequ/S∗1/VD+1/VA∗ t where:
cequ—equilibrium concentration. (2) cequ=cDt ∗VD+cAt ∗VA/VD+VA where:
Recovery of compounds from donor and acceptor wells (mass retention) was calculated as shown in the equation below. Data were only accepted when recovery exceeded 70%.
Background: In PAMPA a lipid-coated filter parts donor from acceptor wells.

Setting [2] is: Plasmodium falciparum, NF54, chloroquine-sensitive strain.
Where [3] appears, read: K1, strain resistant to chloroquine and pyrimethamine, average of four determinations, read-out: P.f. K1 IC50.

The term IC50 denotes the point on the concentration scale where inhibition reaches its midpoint. By melting point is commonly meant the temperature, or range, at which the solid turns liquid. For `CCOc1ccc(-c2nonc2NC(=O)c2ccc(OC)c(Cl)c2)cc1OCC` [Compound 16, 3-Chloro-N-(4-(3,4-diethoxyphenyl)-1,2,5-oxadiazol-3-yl)-4-methoxybenzamide], the melting point was 260 °C (dec.). Also, the IC50 with P. falciparum NF54 (setting [2]) was 0.014 to 0.167 µM. Also, the IC50 in the data set on P. falciparum NF54 (chloroquine-sensitive strain) came to 0.014 µM. This compound yielded an IC50 at 72 h in “in vitro” of 20 µM.
In the case of `CCOc1ccc(-c2nonc2NC(=O)c2ccccc2C)cc1OCC` [Compound 11, N-(4-(3,4-Diethoxyphenyl)-1,2,5-oxadiazol-3-yl)-2-methylbenzamide], the results for the IC50 in the data set with P. falciparum NF54 (setting [2]) and with P. falciparum NF54 (chloroquine-sensitive strain) were 0.343 to 0.831 µM and 0.343 µM, respectively. This compound yielded an IC50 at 72 h in “in vitro” of 14.9 µM.
Take `COc1cc([C@@H]2c3cc4c(cc3[C@H](O)[C@H]3COC(=O)[C@H]23)OCO4)cc(OC)c1OC` [POD, podophyllotoxin, reference compound]: in the data set “in vitro”, the IC50 at 72 h amounted to 0.012 µM.
As to `CCOc1ccc(-c2nonc2NC(=O)c2cccc(F)c2)cc1OCC` [Compound 14, N-(4-(3,4-Diethoxyphenyl)-1,2,5-oxadiazol-3-yl)-3-fluorobenzamide], the melting point stood at 250 °C. Besides, in the data set on P. falciparum NF54 (setting [2]), the IC50 was determined as 0.049 µM. Also, the IC50 in the data set on P. falciparum K1 (setting [3]) is 0.108 µM. In addition, inhibition in “in vitro” was half-maximal at 41.1 µM (IC50 at 72 h).
Regarding `CCOc1ccc(-c2nonc2NC(=O)c2ccc(OC)c(F)c2)cc1OCC` [Compound 17, N-(4-(3,4-Diethoxyphenyl)-1,2,5-oxadiazol-3-yl)-3-fluoro-4-methoxybenzamide], the melting point was 232 °C (dec.). Moreover, the IC50 at 72 h in “in vitro” worked out at 35 µM. Besides, the Papp at 5 h, 200 µM in data set [1] amounted to 3.9 ×10⁻⁶ cm/s.
Compound `CCOc1ccc(-c2nonc2NC(=O)c2cccc(CN3CCOCC3)c2)cc1OCC` [Compound 29, N-(4-(3,4-Diethoxyphenyl)-1,2,5-oxadiazol-3-yl)-3-((morpholin-4-yl)methyl)benzamide] returned a melting point of 199 °C. For the same compound, in the data set on P. falciparum NF54 (setting [2]), the IC50 amounted to 0.712 µM. The compound also had a 50% inhibitory concentration (IC50) at 72 h in the data set “in vitro” of 104 µM. In addition, the Papp at 5 h, 200 µM in data set [1] is 5.65 ×10⁻⁶ cm/s.
On to `CCOc1ccc(-c2nonc2NC(=O)c2ccc(CN3CCOCC3)cc2)cc1OCC` [Compound 27, N-(4-(3,4-Diethoxyphenyl)-1,2,5-oxadiazol-3-yl)-4-((morpholin-4-yl)methyl)benzamide], for which the melting point was 269 °C (dec.). Further, the IC50 with P. falciparum NF54 (setting [2]) lay in the range of 0.674 to 4.05 µM. Besides, the IC50 in the data set on P. falciparum NF54 (chloroquine-sensitive strain) worked out at 0.674 µM. Moreover, in the data set on P. falciparum K1 (setting [3]), the IC50 turned out to be 0.586 µM. In the data set “in vitro”, this compound yielded an IC50 at 72 h of 116 µM.
In the case of `CCOc1ccc(-c2nonc2NC(=O)c2cccc(C(F)(F)F)c2)cc1OCC` [Compound 13, N-(4-(3,4-Diethoxyphenyl)-1,2,5-oxadiazol-3-yl)-3-(trifluoromethyl)benzamide], the melting point was 153 °C. For the same compound, the IC50 in the data set on P. falciparum NF54 (setting [2]) worked out at 0.019 µM. For the same compound, in the data set with P. falciparum K1 (setting [3]), the IC50 was determined as 0.007 µM. Moreover, inhibition in the data set “in vitro” was half-maximal at 9.97 µM (IC50 at 72 h). In data set [1], the Papp at 5 h, 200 µM is 4.26 ×10⁻⁶ cm/s.
As to `CCOc1ccc(-c2nonc2NC(=O)CN2CCCC2)cc1OCC` [Compound 31, N-(4-(3,4-Diethoxyphenyl)-1,2,5-oxadiazol-3-yl)-2-(pyrrolidin-1-yl)acetamide], the figures for the IC50 with P. falciparum NF54 (setting [2]) and in the data set on P. falciparum K1 (setting [3]) were 7.24 µM and 5.02 µM, respectively. 242 µM corresponded to half-maximal inhibition in the data set “in vitro” (IC50 at 72 h). Moreover, the “Pe (effective permeability)” value in data set [1] is 10.80 10^−6 cm/s. Further, the Papp at 5 h, 200 µM in data set [1] was 10.2 to 10.8 ×10⁻⁶ cm/s.
On to `C[C@@H]1CC[C@H]2[C@@H](C)C(=O)O[C@@H]3O[C@@]4(C)CC[C@@H]1[C@]32OO4` [ART, artemisinin, reference compound], for which the IC50 with P. falciparum K1 (setting [3]) amounted to 0.0064 µM. In addition, in the data set “in vitro”, the IC50 at 72 h was determined as 450 µM.
Compound `CCOc1ccc(-c2nonc2NC(=O)c2ccccc2)cc1OCC` [Compound 10, N-(4-(3,4-Diethoxyphenyl)-1,2,5-oxadiazol-3-yl)benzamide] yielded a melting point of 199 °C. Further, in the data set with P. falciparum NF54 (setting [2]), the IC50 is 0.076 µM. Also, the concentration for half-maximal inhibition (IC50) with P. falciparum K1 (setting [3]) was 0.091 µM. The IC50 at 72 h in “in vitro” worked out at 111 µM.
For `CCOc1ccc(-c2nonc2NC(=O)c2cccc(OC(F)(F)F)c2)cc1OCC` [Compound 15, N-(4-(3,4-Diethoxyphenyl)-1,2,5-oxadiazol-3-yl)-3-(trifluoromethoxy)benzamide], the IC50 in the data set with P. falciparum NF54 (setting [2]) came to 0.098 µM. In addition, in the data set “in vitro”, half-maximal inhibition (IC50 at 72 h) was put at 14 µM.
As to `CCOc1ccc(-c2nonc2NC(=O)CCN2CCOCC2)cc1OCC` [Compound 35, N-(4-(3,4-Diethoxyphenyl)-1,2,5-oxadiazol-3-yl)-3-(morpholin-4-yl)propanamide], the IC50 in the data set with P. falciparum NF54 (setting [2]) turned out to be 30.2 µM; in the data set on P. falciparum K1 (setting [3]) it was 19 µM. The IC50 at 72 h in “in vitro” is 147 µM. For the same compound, the Papp at 5 h, 200 µM in data set [1] stood at 6.08 ×10⁻⁶ cm/s.
Regarding `CCOc1ccc(-c2nonc2NC(=O)c2ccc(CN3CCCC3)cc2)cc1OCC` [Compound 26, N-(4-(3,4-Diethoxyphenyl)-1,2,5-oxadiazol-3-yl)-4-((pyrrolidin-1-yl)methyl)benzamide], the melting point is 251 °C (dec.). Besides, the IC50 with P. falciparum K1 (setting [3]) came out at 1.87 µM. This compound also had an IC50 at 72 h in the data set “in vitro” of 102 µM. Moreover, the Papp at 5 h, 200 µM in data set [1] came out at 8.13 ×10⁻⁶ cm/s.
Turning to `CCOc1ccc(-c2nonc2NC(=O)c2cccc(CN3CCCC3)c2)cc1OCC` [Compound 28, N-(4-(3,4-Diethoxyphenyl)-1,2,5-oxadiazol-3-yl)-3-((pyrrolidin-1-yl)methyl)benzamide], in the data set with P. falciparum NF54 (setting [2]), the IC50 was 0.192 µM. Also, the IC50 at 72 h in the data set “in vitro” is 77.2 µM. In addition, in data set [1], the Papp at 5 h, 200 µM is 7.26 ×10⁻⁶ cm/s.
On to `CCOc1ccc(-c2nonc2NC(=O)CCN2CCCC2)cc1OCC` [Compound 34, N-(4-(3,4-Diethoxyphenyl)-1,2,5-oxadiazol-3-yl)-3-(pyrrolidin-1-yl)propanamide], for which the IC50 in the data set with P. falciparum NF54 (setting [2]) was found to be 56 µM; in the data set on P. falciparum K1 (setting [3]), 2.41 µM. Also, the IC50 at 72 h in “in vitro” was determined as 140 µM. In data set [1], the Papp at 5 h, 200 µM stood at 6.93 ×10⁻⁶ cm/s.
On to `CCOc1ccc(-c2nonc2NC(=O)c2ccccc2C(F)(F)F)cc1OCC` [Compound 12, N-(4-(3,4-Diethoxyphenyl)-1,2,5-oxadiazol-3-yl)-2-(trifluoromethyl)benzamide], for which the IC50 at 72 h in the data set “in vitro” worked out at 14.2 µM.
As to `CCOc1ccc(-c2nonc2NC(=O)CN2CCOCC2)cc1OCC` [Compound 32, N-(4-(3,4-Diethoxyphenyl)-1,2,5-oxadiazol-3-yl)-2-(morpholin-4-yl)acetamide], the IC50 in the data set with P. falciparum NF54 (setting [2]) came out at 24.2 µM. For the same compound, the IC50 in the data set on P. falciparum K1 (setting [3]) came to 19.5 µM. The same compound gave an IC50 at 72 h in “in vitro” of 266 µM. For the same compound, in data set [1], the “Pe (effective permeability)” value is 10.25 10^−6 cm/s and the Papp at 5 h, 200 µM lay in the range of 10.2 to 10.8 ×10⁻⁶ cm/s.
Consider `Cc1cccc(C(=O)Nc2nonc2-c2ccccc2)c1` [Compound 39, 3-Methyl-N-(4-phenyl-1,2,5-oxadiazol-3-yl)benzamide], for which the IC50 worked out at 21.5 µM in the data set with P. falciparum NF54 (setting [2]) and 39.9 µM in the data set on P. falciparum K1 (setting [3]). Besides, the IC50 at 72 h in the data set “in vitro” is 66 µM. The Papp at 5 h, 200 µM in data set [1] turned out to be 8.47 ×10⁻⁶ cm/s.
Regarding `CCN(CC)CCCC(C)Nc1ccnc2cc(Cl)ccc12` (stereo not drawn) [CQ, chloroquine, reference compound], in the data set with P. falciparum K1 (K1, read-out: P.f. K1 IC50), the IC50 was 0.15 µM. In “in vitro”, this compound displayed an IC50 at 72 h of 188 µM.
